Experimental data as given in US8962627B2, “Oxime derivatives and their use as allosteric modulators of metabotropic glutamate receptors” (Prestwick Chemical, Inc., priority 2009, dated 2015).

Legend:
[1] = biological target: T1, human mGluR4 transiently over-expressed in HEK-293 cells (Homo sapiens, UniProt Q14833); assay: Human mGluR4 positive allosteric modulator evaluation using Ca++ functional assay; assay type: cell-based; conditions: HEK-293 cells co-transfected with hmGluR4 and chimeric G protein; EC10 glutamate; intracellular calcium (Fluo4AM); read-out: mean EC50 of agonist/positive allosteric modulator activity on mGluR4
T1 construct: expressed in transfected cells; host or cells: HEK-293 cells, transient co-transfection by electroporation
T1 sequence (Q14833 33-912): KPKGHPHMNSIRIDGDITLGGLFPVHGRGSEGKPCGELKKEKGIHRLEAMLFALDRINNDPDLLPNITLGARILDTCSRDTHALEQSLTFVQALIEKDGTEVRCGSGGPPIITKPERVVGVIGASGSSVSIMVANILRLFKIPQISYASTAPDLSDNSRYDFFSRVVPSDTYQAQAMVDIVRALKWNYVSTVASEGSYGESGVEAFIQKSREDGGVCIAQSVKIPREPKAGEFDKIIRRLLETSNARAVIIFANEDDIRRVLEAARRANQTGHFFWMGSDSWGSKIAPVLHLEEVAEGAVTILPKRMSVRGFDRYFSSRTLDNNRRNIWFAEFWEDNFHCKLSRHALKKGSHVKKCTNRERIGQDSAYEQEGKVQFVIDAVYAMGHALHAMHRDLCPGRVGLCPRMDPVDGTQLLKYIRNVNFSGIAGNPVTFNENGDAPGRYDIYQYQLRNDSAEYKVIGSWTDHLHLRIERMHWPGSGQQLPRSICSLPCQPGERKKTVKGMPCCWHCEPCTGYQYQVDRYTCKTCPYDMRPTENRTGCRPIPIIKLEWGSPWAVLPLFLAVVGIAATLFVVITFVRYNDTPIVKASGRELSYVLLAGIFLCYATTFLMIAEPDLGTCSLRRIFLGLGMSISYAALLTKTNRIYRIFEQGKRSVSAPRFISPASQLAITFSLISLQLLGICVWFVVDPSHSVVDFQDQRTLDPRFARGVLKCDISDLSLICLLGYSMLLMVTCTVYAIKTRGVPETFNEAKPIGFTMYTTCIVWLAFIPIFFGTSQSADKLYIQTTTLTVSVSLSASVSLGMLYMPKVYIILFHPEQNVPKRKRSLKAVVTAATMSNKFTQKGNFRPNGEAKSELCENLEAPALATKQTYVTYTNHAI
Experimental: Human mGluR4 Positive Allosteric Modulator Evaluation Using Ca^++ Functional Assay
Compounds of the present invention were tested successively for their agonist and positive allosteric modulator activities on human mGluR4 transiently over-expressed in HEK-293 cells. They exert agonist activity if, by themselves in absence of the endogenous glutamate, they are able to activate mGluR4; and they exert positive allosteric modulator activity if they increase the action of the endogenous glutamate.
Cell Culture and Transfection
HEK-293 cells were maintained in Modified Eagle's Medium supplemented with 10% Foetal Calf Serum, 1% Penicillin/Streptomycin and 1% non essential amino acids at 37° C./5% CO2.
Cells were co-transfected by electroporation with two DNA plasmids encoding hmGluR4 and a chimeric G protein allowing redirection of the activation signal to intracellular calcium pathway. Cells were plated after transfection onto polyornithine coated, clear bottom, black-walled, 96-well plates and cultured for 24 h.
Calcium Assay EC50 Determination
Receptor activity was detected by changes in intracellular calcium measured using the fluorescent Ca^2+ sensitive dye, Fluo4AM (Molecular Probes).
The day of the assay, medium was aspirated and replaced during 3 hours by medium without serum supplemented with 1% Glutamax, 1% Penicillin/Streptomycin and 1% non essential amino acids. Then, cells were washed with freshly prepared buffer B (HBSS 1×(PAA), Hepes 20 mM, MgSO4-7H2O 1 mM, Na2CO3 3.3 mM, CaCl2-2H2O 1.3 mM, 0.5% BSA, Probenecid 2.5 mM) and loaded at 37° C. in 5% CO2 for 1.5 hours with buffer B containing 1 μM Fluo4AM 0.1 mg/mL Pluronic Acid, 7 μg/mL Glutamate Pyruvate Transaminase and 2 mM sodium pyruvate. Afterwards cells were washed twice with buffer B and 50 μL of this buffer were added to each well. Addition of compounds and intracellular Ca^2+ measurements (excitation 485 nm, emission 525 nm) were performed by the fluorescence microplate reader FlexStation (Molecular Devices).
Agonist and positive allosteric modulator activities of compounds were consecutively evaluated on the same cells plate. Agonist activity was first tested during 60 s with the addition of compound alone on the cells. Then, the cells were stimulated by an EC10 glutamate concentration and fluorescence recorded for additional 60 s. EC10 glutamate concentration is the concentration giving 10% of the maximal glutamate response. Agonist and/or positive allosteric modulator activity(ies) were evaluated in comparison to basal signal evoked by EC10 glutamate alone.
For EC50 determination, a dose-response test was performed using 6 to 9 concentrations of each compound of the invention. Dose-response curves were fitted using the sigmoidal dose-response (variable slope) analysis in GraphPad Prism program (Graph Pad Inc) and EC50 of agonist/positive allosteric modulator activity was calculated. Dose-response experiments were all performed in duplicate, two times independently.

SMILES | EC50 [1] | melting point
ON=c1cc(-c2cc3cccn3cn2)oc2ccc(OCCc3ccccc3)cc12 [Example 146, 6-Phenethyloxy-2-pyrrolo[1,2-c]pyrimidin-3-yl-chromen-4-one oxime] | < 1 µM | 210 °C
ON=c1cc(-c2cc3ccccc3cn2)oc2cc(Br)ccc12 (mixture of isomers) [Example 2, 7-bromo-2-isoquinolin-3-yl-chromen-4-one oxime] | < 5 µM | 279 to 283 °C
Cl.ON=c1cc(-c2cc3sccc3cn2)oc2ccc(OCCN3CCOCC3)cc12 [Example 127, 6-(2-Morpholin-4-yl-ethoxy)-2-thieno[3,2-c]pyridin-6-yl-chromen-4-one oxime, hydrochloride] | < 1 µM | > 230 °C (dec.)
COC[C@@H]1CCCN1CCOc1ccc2oc(-c3cc4cccn4cn3)cc(=NO)c2c1.Cl [Example 96, 6-[2-((S)-2-methoxymethylpyrrolidin-1-yl)-ethoxy]-2-pyrrolo[1,2-c]pyrimidin-3-yl-chromen-4-one oxime, hydrochloride] | < 1 µM | > 225 °C (dec.)
CCc1ccc2oc(-c3cc4ccccc4cn3)cc(=NO)c2c1 [Example 37, 6-ethyl-2-isoquinolin-3-yl-chromen-4-one oxime] | < 1 µM | 210 to 212 °C
ON=c1cc(-c2cc3cccn3cn2)oc2ccc(OCCOc3ccncc3)cc12 [Example 147, 6-[2-(Pyridin-4-yloxy)-ethoxy]-2-pyrrolo[1,2-c]pyrimidin-3-yl-chromen-4-one oxime] | < 1 µM | 198 to 200 °C
Cl.Cl.ON=c1cc(-c2cc3cccn3cn2)oc2ccc(OCCN3CCC(N4CCCCC4)CC3)cc12 [Example 116, 6-(2-[1,4′]bipiperidinyl-1′-yl-ethoxy)-2-pyrrolo[1,2-c]pyrimidin-3-yl-chromen-4-one oxime, dihydrochloride] | < 1 µM | > 235 °C (dec.)
Cl.ON=c1cc(-c2cc3sccc3cn2)oc2ccc(OCCN3CCC(F)(F)C3)cc12 [Example 133, 6-[2-(3,3-Difluoro-pyrrolidin-1-yl)-ethoxy]-2-thieno[3,2-c]pyridin-6-yl-chromen-4-one oxime, hydrochloride] | < 1 µM | 226 to 229 °C
Cl.ON=c1cc(-c2cc3cccn3cn2)oc2ccc(OCCN3CCCC3)cc12 [Example 87, 6-(2-Pyrrolidin-1-yl-ethoxy)-2-pyrrolo[1,2-c]pyrimidin-3-yl-chromen-4-one oxime, hydrochloride] | < 5 µM | > 260 °C (dec.)
ON=c1cc(-c2cc3cccn3cn2)oc2cccc(C(F)(F)F)c12 [Example 153, 2-Pyrrolo[1,2-c]pyrimidin-3-yl-5-trifluoromethyl-chromen-4-one oxime] | < 5 µM | 255 to 257 °C
ON=c1cc(-c2cc3cc(Br)cn3cn2)oc2ccccc12 [Example 65, 2-(6-bromo-Pyrrolo[1,2-c]pyrimidin-3-yl)-chromen-4-one oxime] | < 5 µM | 244 to 245 °C
ON=c1cc(-c2cc3ccccc3cn2)oc2ccc(OC(F)(F)F)cc12 (mixture of isomers) [Example 10, 2-isoquinolin-3-yl-6-trifluoromethoxy-chromen-4-one oxime] | < 5 µM | 250 to 254 °C
Cl.ON=c1cc(-c2cc3cccn3cn2)oc2ccc(OCCCc3ccncc3)cc12 [Example 159, 6-(3-Pyridin-4-yl-propoxy)-2-pyrrolo[1,2-c]pyrimidin-3-yl-chromen-4-one oxime, hydrochloride] | < 1 µM | 210 to 215 °C
ON=c1cc(-c2cc3ccccc3cn2)oc2ccc(F)cc12 (mixture of isomers) [Example 6, 6-fluoro-2-isoquinolin-3-yl-chromen-4-one oxime] | < 5 µM | 278 to 280 °C
Cl.ON=c1cc(-c2cc3cccn3cn2)oc2ccc(OCCN3CCC(F)(F)C3)cc12 [Example 119, 6-[2-(3,3-difluoro-pyrrolidin-1-yl)-ethoxy]-2-pyrrolo[1,2-c]pyrimidin-3-yl-chromen-4-one oxime, hydrochloride] | < 1 µM | > 230 °C (dec.)
CN1CCN(CCOc2ccc3oc(-c4cc5cccn5cn4)cc(=NO)c3c2)CC1.Cl.Cl [Example 93, 6-[2-(4-methyl-piperazin-1-yl)-ethoxy]-2-pyrrolo[1,2-c]pyrimidin-3-yl-chromen-4-one oxime, dihydrochloride] | < 5 µM | > 230 °C (dec.)
Cc1ccc2cnc(-c3cc(=NO)c4ccccc4o3)cc2c1 (mixture of isomers) [Example 15, 2-(6-methyl-isoquinolin-3-yl)-chromen-4-one oxime] | < 5 µM | 245 to 247 °C
CN(C(=O)COc1ccc2oc(-c3cc4cccn4cn3)cc(=NO)c2c1)c1ccc(F)cc1 [Example 151, N-(4-Fluoro-phenyl)-2-{4-hydroxyimino-2-pyrrolo[1,2-c]pyrimidin-3-yl-4H-chromen-6-yloxy}-N-methyl-acetamide] | < 5 µM | 268 to 272 °C
Cl.ON=c1cc(-c2cc3cccn3cn2)oc2ccc(OCCN3CCCCC3)cc12 [Example 88, 6-(2-Piperidin-1-yl-ethoxy)-2-pyrrolo[1,2-c]pyrimidin-3-yl-chromen-4-one oxime, hydrochloride] | < 5 µM | > 255 °C (dec.)
CN(C)CCOc1ccc2oc(-c3cc4ccccc4cn3)cc(=NO)c2c1 (mixture of isomers) [Example 44, 6-(2-dimethylamino-ethoxy)-2-isoquinolin-3-yl-chromen-4-one oxime] | < 5 µM | 203 to 205 °C
COCCCc1ccc2oc(-c3cc4cccn4cn3)cc(=NO)c2c1 (mixture of isomers) [Example 83, 6-(3-Methoxy-propyl)-2-pyrrolo[1,2-c]pyrimidin-3-yl-chromen-4-one oxime] | < 1 µM | 172 to 173 °C
Cl.ON=c1cc(-c2cn3cccc3cn2)oc2ccc(OCCN3CCC(F)(F)CC3)cc12 [Example 124, 6-[2-(4,4-Difluoro-piperidin-1-yl)-ethoxy]-2-pyrrolo[1,2-a]pyrazin-3-yl-chromen-4-one oxime, hydrochloride] | < 1 µM | 225 to 230 °C
Cl.ON=c1cc(-c2cc3sccc3cn2)oc2ccc(OCCN3CCCC(F)(F)C3)cc12 [Example 131, 6-[2-(3,3-Difluoro-piperidin-1-yl)-ethoxy]-2-thieno[3,2-c]pyridin-6-yl-chromen-4-one oxime, hydrochloride] | < 1 µM | > 250 °C (dec.)
ON=c1cc(-c2cc3ccccc3cn2)oc2cc(C#Cc3ccccn3)ccc12 [Example 24, 2-isoquinolin-3-yl-7-(pyridin-2-yl-ethynyl)-chromen-4-one oxime] | < 5 µM | 248 to 251 °C
COCCOCC#Cc1ccc2c(=NO)cc(-c3cc4ccccc4cn3)oc2c1 (mixture of isomers) [Example 54, 2-Isoquinolin-3-yl-7-[3-(2-methoxy-ethoxy)-prop-1-ynyl]-chromen-4-one oxime] | < 5 µM | 158 to 160 °C
